Experimental data from article PMC7037447, “Syntheses of L-Rhamnose-Linked Amino Glycerolipids and Their Cytotoxic Activities against Human Cancer Cells” (Molecules, 2020).
Read-outs that look alike come from different tables or passages of the source.

Columns and labels:
PC-3 [1] = assay: MTS cell viability assay, 48 h; format: cell-based, human; details: PC-3, 48 h
Method: (§1) The cells were incubated with increasing concentrations of the compounds (0–30 µM) for 48 h followed by assessment of cell viability using the MTS assay. […] This compound carries a primary amino group at the sn-3 position of the glycerolipid and L-rhamno sugar at the sn-2 position via an α-rhamnosidic linkage.
(§2) The effects of the GAELs on the viability of the epithelial cancer cell lines were determined as previously described. Briefly, equal numbers of the cells were dispersed into 96-well plates. After 24 h, the cells were incubated with the compounds (0–30 µM) for 48 h. MTS reagent [3-(4,5-dimethylthiazol-2-yl)-5-(3-carboxymethoxyphenyl)-2-(4-sulfophenyl)-2H-tetrazolium, inner salt; Promega, Madison, WI, USA] (20% v/v) was subsequently added and the plates were incubated for 1–4 h in a CO2 incubator followed by measurement of the medium at OD490 with a plate reader (Molecular Devices). Wells with media but no cells were treated in similar fashion and the values utilized as blank.

[2] = tested on: human epithelial cancer cell lines: breast (MDA-MB-231, JIMT-1), pancreas (MiaPaCa2) and prostate (DU-145, PC-3); assay: MTS cell viability assay, 48 h, across the panel of cell lines; format: cell-based; details: for CC50: read-out: CC50 values across the cell lines; for Cytotoxicity against the cancer cells: highest dose tested 30 µM, data not shown
Method: as §1
(§3) The cell lines were cultured from frozen stocks originally obtained from ATCC (Manassas, VA, USA). MDA-MB-231, JIMT-1, DU145, MDA-MB-468, Hs578t and MDA-MB-453 were grown in DMEM medium supplemented with 10% FBS. BT-474 cells were grown in DMEM/F12 medium supplemented with 10% FBS. MiaPaCa2 was cultured in DMEM supplemented with 10% FBS and 2.5% horse serum. All the media contained penicillin/streptomycin. U-251 and U-87 in Eagle MEM supplemented by 10% FBS, 1% Non-essential amino acids, 1 mM sodium pyruvate and 2 mM glutamine. BT-549 was cultured in RPMI 1640 medium supplemented with 10% FBS.
as §2

JIMT-1 [3] = assay: MTS cell viability assay, 48 h; format: cell-based, human; details: JIMT-1, 48 h
Method: as §1, §3, §2

MiaPaCa2 [4] = assay: MTS cell viability assay, 48 h; format: cell-based, human
Method: as §1, §3
as §2, with “Devices).” for “Devices). Wells with media but no cells were treated in similar fashion and the values utilized as blank.”

DU-145 [5] = assay: MTS cell viability assay, 48 h; format: cell-based, human; details: DU-145, 48 h
Method: as §1, §3
as §2, with “Devices).” for “Devices). Wells with media but no cells were treated in similar fashion and the values utilized as blank.”

MDA-MB-231 [6] = assay: MTS cell viability assay, 48 h; format: cell-based, human; details: MDA-MB-231, 48 h
Method: […] […] This compound carries a primary amino group at the sn-3 position of the glycerolipid and L-rhamno sugar at the sn-2 position via an α-rhamnosidic linkage.
as §3
as §2, with “After 24 h, the cells were incubated with the compounds (0–30 µM) for 48 h.” left out, “Devices).” for “Devices). Wells with media but no cells were treated in similar fashion and the values utilized as blank.”

DU-145 [7] = tested on: DU-145; parameters: method as in PMID 28177244; details: cited from earlier work
[8] = tested on: human epithelial cancer cell lines: breast (MDA-MB-231, JIMT-1), pancreas (MiaPaCa2) and prostate (DU-145, PC-3); parameters: method as in PMID 28177244; details: range over all cell lines; read-out: CC50 values across the cell lines; cited from earlier work
MiaPaCa2 [9] = tested on: MiaPaCa2; parameters: method as in PMID 28177244; details: cited from earlier work
JIMT-1 [10] = tested on: JIMT-1; parameters: method as in PMID 28177244; details: cited from earlier work
PC-3 [11] = tested on: PC-3; parameters: method as in PMID 28177244; details: cited from earlier work
MDA-MB-231 [12] = tested on: MDA-MB-231; parameters: method as in PMID 28177244; details: cited from earlier work
JIMT-1 [13] = assay: Cell membrane integrity, ethidium homodimer-1 (EthD-1) staining; format: cell-based; details: JIMT-1, 0.01%, 10 min
Method: (§4) After determining that the mechanism of cell death of compound 3 is independent of caspases-mediated apoptosis, we evaluated if cell death was due to membrane disruption or lysis using the cell impermeant ethidium homodimer-1 (EthD-1) dye that emits red fluorescence upon binding to DNA [13, 14]. DU-145 and JIMT-1 were treated with compound 3 at 10 and 15 µM, respectively. After 4–6 h, the cells were treated with EthD-1 dye and monitored under fluorescence microscopy.
(§5) Equal numbers of JIMT-1 and DU145 cells were dispersed into 96-well plates. After 24 h the cells were incubated with varying concentration of compounds 3 or 4 (4–6 µM) for 5–6 h. Subsequently, 2 µM of the cell membrane impermeant dye, ethidium homodimer-1 (EthD-1 (Molecular Probes, Eugene, OR, USA) that emits red fluorescence upon binding to DNA was added and the cells analysed by fluorescence microscopy. EthD-1 staining was compared to negative controls with no treatment and positive control treated with 0.01% Triton X-100 for 10 min.
(§6) Figure 5 Evaluation of effect of compound 3 on cell membrane of DU-145 and JIMT-1 cell lines using cell impermeant ethidium homodimer-1 (EthD-1) dye that emits red fluorescence upon binding to DNA.

DU-145 [14] = assay: as above; format: cell-based; details: DU-145, 0.01%, 10 min
Method: as §4, §5, §6

[15] = Homo sapiens, MTS, read-out: CC50
[16] = Homo sapiens, 48 h, range or bound over all cell lines, 48 h, MTS
[17] = Homo sapiens, MIA PaCa-2, MiaPaCa2, 48 h, MTS, read-out: CC50

In the case of `CCCCCCCCCCCCCCCCOCC(CN)OC1OC(CO)C(O)C(O)C1O` [Compound 5, 3-Amino-1-hexadecyloxyl-2R-O-β-L-glucopyranosyl-sn-glycerol], the CC50 (PC-3 [1]; [15]) is reported as over 30 µM, the CC50 [2, 16] is reported as over 30 µM and the Loss of viability ([2]; depending on the cell line, up to 30 µM, 48 h) is reported as 0–35%. It also gave a CC50 (JIMT-1 [3]; [15]) of over 30 µM, a CC50 (MiaPaCa2 [4]; [17]) of over 30 µM and a CC50 (DU-145 [5]; [15]) of over 30 µM.

With `C[C@H](O)[C@H](O)[C@@H](O)[C@@H](O)C=O` [rhamnose, L-Rhamnose] the “Cytotoxicity against the cancer cells” value [2] was “not cytotoxic”.

`O=C(O)CCCc1ccc(N(CCCl)CCCl)cc1` [Chlorambucil, reference compound] gave a CC50 (PC-3 [1]; Homo sapiens) of over 150 µM, a CC50 ([2]; Homo sapiens, 48 h) of over 150 µM and a CC50 (MDA-MB-231 [6]; Homo sapiens) of over 150 µM. The CC50 (JIMT-1 [3]; Homo sapiens) was over 150 µM, the CC50 (MiaPaCa2 [4]; Homo sapiens, MIA PaCa-2, 48 h) was over 150 µM and the CC50 (DU-145 [5]; Homo sapiens) was over 150 µM.

In the case of `CCCCCCCCCCCCCCCCOCC(CN)OC1OC(CN)C(O)C(O)C1O` [Compound 6, 3-Amino-1-hexadecyloxyl-2R-(6′-amino-6′deoxy-O-α-L-mannopyranosyl)-sn-glycerol], the CC50 (PC-3 [1]; [15]) is reported as 25 µM, the “Times less active than glycolipid 3” value ([2]; CC50 compared with 3) is reported as 2- to 4 and the CC50 [2, 16] is reported as 12.5 to 25 µM. It also gave a CC50 (JIMT-1 [3]; [15]) of 12.5 µM, a CC50 (MiaPaCa2 [4]; [17]) of 19 µM and a CC50 (DU-145 [5]; [15]) of 17.5 µM.

In the case of `CCCCCCCCCCCCCCCCOCC(CO[C@@H]1O[C@@H](CO)[C@H](O)[C@@H](O)[C@@H]1N)OC` (stereo partly drawn) [Compound 1], the CC50 (DU-145 [7]) is given as 12.5 µM, the CC50 [8] is given as 6.5 to 12 µM and the CC50 (MiaPaCa2 [9]) is given as 7.5 µM. The CC50 (JIMT-1 [10]) was 6.5 µM, the CC50 (PC-3 [11]) was 12.5 µM and the CC50 (MDA-MB-231 [12]) was 11 µM.

With `OC[C@@H]1OC(O)[C@@H](O)[C@H](O)[C@H]1O` (stereo partly drawn) [L-glucose] the “Cytotoxicity against the cancer cells” value [2] was “not cytotoxic”.

For `OC[C@@H]1OC(O)[C@H](O)[C@H](O)[C@H]1O` (stereo partly drawn) [L-mannose], the “Cytotoxicity against the cancer cells” value [2] was “not cytotoxic”.

“1-Hexadecyl-2R-methoxyl-3-O-α-L-rhamnopyranosyl-sn-glycerol [Compound 2]” showed a CC50 (PC-3 [1]; MTS, read-out: CC50) of 25 µM, a CC50 ([2]; range or bound over all cell lines, 48 h, MTS) of at least 21.5 µM and a CC50 (MDA-MB-231 [6]; MTS, concentration decreasing cell viability by 50% relative to untreated control, read-out: CC50) of 26 µM. The CC50 (JIMT-1 [3]; MTS, read-out: CC50) was 28 µM, the CC50 (MiaPaCa2 [4]; MiaPaCa2, 48 h, MTS, read-out: CC50) was over 30 µM and the CC50 (DU-145 [5]; MTS, read-out: CC50) was 25 µM.

Work on `CCCCCCCCCCCCCCCCOCC(CNC(=O)CCc1ccc(O)cc1)O[C@@H]1O[C@@H](C)[C@H](O)[C@@H](O)[C@H]1O` (stereo partly drawn) [Compound 4] yielded a CC50 (PC-3 [1]; [15]) of 21.5 µM, a CC50 [2, 16] of at least 21.5 µM and a CC50 (MDA-MB-231 [6]; Homo sapiens, MTS, concentration decreasing cell viability by 50% relative to untreated control, read-out: CC50) of 23 µM. The CC50 (JIMT-1 [3]; [15]) was 25 µM, the CC50 (MiaPaCa2 [4]; [17]) was over 30 µM and the CC50 (DU-145 [5]; [15]) was 30 µM.

With Triton X-100 [reference compound] the “EthD-1 staining, positive control” value (JIMT-1 [13]) was “stained bright red” and the “EthD-1 staining, positive control” value (DU-145 [14]) was “stained bright red”.

In the case of `CCCCCCCCCCCCCCCCOCC(CO[C@H]1O[C@H](CO)[C@@H](O)[C@H](O)[C@H]1N)OC` (stereo partly drawn) [Compound 7], the CC50 (DU-145 [7]) is listed as 9 µM, the CC50 (MiaPaCa2 [9]) is listed as 9 µM and the CC50 (JIMT-1 [10]) is listed as 9 µM. The CC50 (PC-3 [11]) was 13.5 µM.
